{"source": "patent US12178838B2", "about": "“Synthetic neuromodulatory peptides” (Lactocore, Inc., priority 2019, dated 2024)", "type_in_all_cases": "in vivo", "key": {"zebrafish (Danio rerio)": {"test_system": "zebrafish (Danio rerio)", "assay": "Light/dark box test in zebrafish", "conditions": "ip", "experimental": "The tested substances were injected into the zebrafish intraperitoneally (ip) using an insulin syringe (0.5 ml, 30 g) 10 minutes before the test. The saline solution (0.9% NaCl) was used as a solvent. Anesthesia and immobilization of the animals were achieved by placing them in water at a temperature of 10° C. Control group fish received intraperitoneal injections of an equivalent volume of solvent, also after going through a pre-cooling procedure.\nA base, back, and side walls of the aquarium were made of matte black plastic; the front panel (shorter wall) was made of transparent Plexiglas. The setup for the Light/Dark preference test consisted of three main parts: a launch compartment, a light compartment made of white plastic, and a dark compartment made of black plastic. The bright lighting in these tests was provided by a lamp on a stand (LED lamp PL, 11 W, light flux≈600 Lm, about 500 Lx directly above the water surface), which was attached to the upper part of the aquarium.\nThe light/dark box (LDB) test was performed as described in Maximino et al., 2011. The zebrafish was placed in a light compartment of an LDB using a net, the camera was switched on simultaneously, and the behavior of the zebrafish was recorded for 5 minutes. The video was processed using RealTimer (OpenScience). During the processing of records, the residence time and the number of visits to the light and dark compartments of the test setup were recorded, as well as the latent period of visiting both compartments."}, "[1]": {"test_system": "Wistar rats after chronic unpredictable mild stress", "assay": "CUMS model: Elevated Plus Maze test", "experimental": "(§1) During stress, the animals were placed in individual cells and exposed to stressful conditions each day for 26 days. Two stressors were used daily, applied in the following order: • Day 1. 10 am-6 pm, rats were placed in a cold room for an hour. From 6 PM to 10 am the lights were turned on and off every 2 hours. • Day 2. 10 am-6 pm, cage tilted to 45°. From 6 PM to 10 am water deprivation. • Day 3. 10 am-6 pm, stroboscopic light. From 6 PM to 10 am the light was left on overnight. • Day 4. 10 am-6 pm, wet bedding. From 6 PM to 10 am the animals were put in a small mouse cage. • Day 5. 10 am-6 pm, no bedding. From 6 PM to 10 am the lights were turned on and off every 2 hours. • Day 6. 10 am-6 pm, a new rat was placed in the cage (6-month-old). From 6 PM to 10 am the light was left on overnight. • Day 7. 10 am-6 pm, white noise. From 6 PM to 10 am a stroboscopic light was turned on at night. • Day 8-26. Repetition of previously used stressors in the specified sequence.\nExperimental substances were administered daily starting from the 58-59 day of the experiment. The administration took place 30 minutes before the start of behavioral testing. On days when there were no tests, the substances were administered in the morning.\nThe Elevated Plus Maze test was used to assess the level of anxiety, motor, and exploratory activity of laboratory animals. The apparatus consisted of two closed and two open arms opposite to each other (arm's length 45 cm) with the height of the sides of the closed arm −10 cm. The entire installation was raised on a stand 70 cm above the base. Rats were placed in the center of the maze with their heads facing the open arm. Within 5 minutes the number of exits to open arms and time spent in them, the number of transitions between arms, the time of rest, the duration and number of grooming acts, the number of stretch-attend postures into the open arms of the maze, and the number of rears were recorded. Normally, rodents tend to stay in the dark arms."}, "BALB/C mice": {"test_system": "BALB/C mice", "assay": "Elevated Plus Maze test in mice", "conditions": "ip, Diazepam 0.75 mg/kg", "experimental": "After an adaptation period, the test substance was intraperitoneally injected into mice. Behavioral parameters were measured in 30 minutes after injection. The tests were administered as follows: day 1—the Open field test, day 3—the Elevated plus maze test, day 5—the Marble burying test, days 12-13—the Porsolt swim (two-day modification) test.\nIn the elevated plus maze test, a test arena includes two open and two closed arms crossed in the middle. The arm length is 30 cm, the height of the closed arms side walls is 15 cm. The entire installation is raised 70 cm above the floor. The open arms have bright uniform illumination of about 400 lux, and the closed arms have illumination of about 30-40 lux. Mice were placed at the junction of the four arms of the maze (center), facing an open arm. The following behavioral parameters were automatically registered by the EthoVision, Noldus program within 5 minutes of the experiment: a total distance (cm), a time of motion (if the speed is more than 5 cm/s), an immobility (if the speed is less than 0.2 cm/sec), a mean and maximum velocity, and the number of episodes of motor activity and “freezing”. The same set of parameters, as well as a latent period and the duration of stay, were measured for the central sector, open and closed arms separately. (Manufactured by OpenScience, Russia).\nAll substances were injected intraperitoneally in a volume of 10 μl of solution per 1 gram of animal weight 30 minutes prior to behavioral testing.\nThe second group of parameters includes a time on open arms (in seconds) (FIG. 35), a number of open arms entries (FIG. 36), a number of risk behavior (number of rearings and dangle events, as shown in FIG. 37]), and an anxiety index (FIG. 38). The anxiety index (AI) was calculated using the following formula: AI=100*(1−(time on open arms/total test time+open arms entries/total number of entries)/2)"}, "[2]": {"test_system": "Wistar rats after chronic unpredictable mild stress", "assay": "CUMS model: Porsolt forced swimming test", "conditions": "FQSE 0.05 mg/kg i.n.; Diazepam 0.5 mg/kg i.p.; 18 injections", "experimental": "as §1, with “sequence. […]” for “sequence.”\nThe forced swim test is a rodent behavioral test used for the evaluation of antidepressant drugs, antidepressant efficacy of new compounds, and experimental manipulations that are aimed at rendering or preventing depressive-like states. […] In the last 6 minutes, the duration of active (vigorous movement of all limbs) and passive (weak strokes of the hind limbs) swimming and immobility duration were recorded. […]"}}, "data": [{"smiles": "CN1C(=O)CN=C(c2ccccc2)c2cc(Cl)ccc21", "note": "[Diazepam]", "values": [{"measurement": "time spent in the light compartment", "setting": "zebrafish (Danio rerio); diazepam 5 mg/kg, FQSE 10 mg/kg, WDQV 10 mg/kg", "value": "increased dramatically"}, {"measurement": "number of transitions between the light and dark compartments", "setting": "zebrafish (Danio rerio); diazepam 10 mg/kg", "value": "increase"}, {"measurement": "time of the first exit (latent period) to the light chamber", "setting": "zebrafish (Danio rerio); diazepam 10 mg/kg", "value": "decrease"}, {"measurement": "result obtained in EPM (1 administration)", "setting": "[1]; CUMS, FQSE 0.5 mg/kg, Diazepam", "value": "sedative effects"}, {"measurement": "time spent on the open arms", "setting": "[1]; Diazepam 0.5 mg/kg i.p., 1 injection, vs stressed animals treated with solvent", "value": "increase"}, {"measurement": "freezing time", "setting": "[1]; Diazepam 0.5 mg/kg i.p., vs control group", "value": "increase of freezing"}, {"measurement": "Time on open arms", "setting": "BALB/C mice; FQSE 20 mg/kg", "value": "67.4 ± 18.43", "unit": "s"}, {"measurement": "Open arms entries", "setting": "BALB/C mice; FQSE 1 mg/kg", "value": "6.5±0.99"}, {"measurement": "The number of risk behavior", "setting": "BALB/C mice; FQSE 1 mg/kg", "value": "15±2.8"}, {"measurement": "total distance", "setting": "BALB/C mice; FQSE 1 mg/kg", "value": "1219±91.4", "unit": "cm"}, {"measurement": "immobilization time", "setting": "[2]", "value": "did not differ"}]}]}
